The subject of data set [1] is recombinant luciferase-expressing HIV-1. The data set is classed as cell-based. Particulars: for IC50: recombinant luciferase-expressing HIV-1, mean ± standard error, triplicate, read-out: IC50 viral entry. How it is done: The potency of C34 peptides in inhibiting viral infection and the HIV-1 infection inhibitory activity of the D-peptides were assayed using recombinant luciferase-expressing HIV-1 (Chen, B. K. et al., J. Virol., 68:654 (1994); Malashkevich, V. N., et al., Proc. Natl. Acad. Sci., USA, 95:9134 (1998)).
(§1) The apparent melting temperatures (Tm) were estimated from the thermal dependence of the CD signal at 222 nm. Inhibition of viral entry was measured in a cell-culture infection assay using recombinant luciferase-expressing HIV-1. Inhibition of cell-cell fusion was measured in a syncytium assay. The means and standard errors are from triplicate trials.

In data set [2] the test system is syncytia formation between Chinese hamster ovary cell expressing HXB2 envelope and HeLa-CD4-LTR-Beta-gal cells. How it is done: In each instance, a blocking group (e.g., an acetyl group) was present at the N terminus and a CONH2 (amide) was present at the C-terminus.
Inhibition of cell/cell fusion (i.e., syncytia formation) was assayed by co-culturing Chinese hamster ovary cell expressing HXB2 envelope (K. Kozarsky, et al., J. Acquir. Immune. Defic. Syndr., 2:163 (1989) and the HeLa-CD4-LTR-Beta-gal cells (M. Emerman, NIH AIDS Reagent program) in the presence of varying concentration of peptide. When mixed, these cells form syncytia, or multi-nucleated cells, which express β-galactosidase. Approximately twenty hours after co-culturing the cells, the monolayers were stained with 5-bromo-4-chloro-3-indolyl-β-D-galactoside to visualize the syncytia. The syncytia are visualized with a microscope and counted manually (a syncytia is scored as a fused cell containing three or more nuclei). The IC50 was calculated from fitting the data to a Langmuir equation [y=k/(1+[peptide]/IC50)+x], where y=number of syncytia and k and x are scaling constants.

A further data set addresses T1, N36 peptide (Human immunodeficiency virus type 1 group M subtype B, UniProt P04578).
T1 construct: made in house; host or cells: chemical peptide synthesis
The class given is physicochemical, HIV-1. The conditions noted are these: for Tm (apparent melting temperature) of N36/C34 complex: C34 peptide 10 μM + N36 10 μM, phosphate-buffered saline pH 7.0, CD signal at 222 nm; for mean residue ellipticity [θ]222 of N36/C34 complex: CD at 222 nm, 0° C., PBS pH 7.0. How it is done:
CD measurements were performed in phosphate-buffered saline (50 mM sodium phosphate, 150 mM NaCl, pH 7.0) with an Aviv Model 62DS spectrometer as previously described (M. Lu, S. C. Blacklow, P. S. Kim, Nat. Struct. Biol., 2:1075 (1995)). The apparent melting temperature of each complex was estimated from the maximum of the first derivative of [θ]222 with respect to temperature.
as §1

The test system of data set [3] is hydrophobic pocket of IQN17 (gp41). Briefly: 1H NMR assay of binding to the IQN17 hydrophobic pocket. Set-up: species or system HIV-1. Particulars: 1:1 complex with IQN17, 25° C., 100 mM NaCl, 50 mM sodium phosphate pH 7.5, D2O. The source says:
NMR experiments were used to assay the binding of each D-peptide to IQN17. The single tryptophan residue of IQN17 (denoted Trp-571) provides an excellent probe of specific binding to the hydrophobic pocket of gp41. […] To test a compound for binding to the gp41 pocket, two one-dimensional ^1H NMR measurements were made on samples in deuterated buffers. First, a reference (control) spectrum of IQN17 was taken, identifying the Trp571 chemical shifts in the unbound form. A second spectrum was acquired on a sample containing both IQN17 and the compound in question. An optional third spectrum of the D-peptide (or other small molecule, or mix of molecules) was also taken. ^1H NMR experiments were performed on a Bruker AMX 500 spectrometer. Data was processed in Felix 98.0 (MSI) on Silicon Graphics computers, and all spectra were referenced to DSS. All experiments were performed at 25° C. in 100 mM NaCl, 50 mM sodium phosphate (pH 7.5). All buffers used were >99.7% D2O, to remove overlapping resonances from exchangeable backbone and side chain protons. Solute concentrations ranged from 0.3-1.0 mM for individual peptides, 0.8-1.0 mM for 1:1 commplexes of IQN17 with each D-peptide.
Simple binding of two or more components is expected to result both in broader peaks (due to the increased size of the complex) and in changes in chemical shifts (due to the different chemical environments experienced by nuclei in free and bound forms). Specific binding to the hydrophobic pocket is indicated by a change in the Trp-571 chemical shifts, as well as by a broadening of peaks. Binding can also be indicated by similar changes in the chemical shifts and peak widths of the molecule (peptides and small organic molecules, for example) assayed. […] All IQN17/D-peptide complexes studied gave similar results, though varying in the degree of chemical shift dispersion (FIG. 9B). Thus, binding was indicated in all cases.
To confirm that the strongly upfield-shifted peaks all correspond to a single sidechain (almost certainly Trp-571), two-dimensional NMR (TOCSY) experiments were performed on each of the IQN17/D-peptide complexes. As expected, the TOCSY experiments indicate that in each complex, the strongly upfield-shifted resonances all belong to the same aromatic side chain, identified as a group of four scalar-coupled protons. For several of the complexes studied, NOESY experiments also indicate contact between this sidechain and other (unassigned) aromatic groups, as expected from the IQN17/D10pep1 structure. Not all of the potential NOE crosspeaks could be resolved, due to intense spectral overlap in the 6.8-7.6 ppm region. 2D NOESY and TOCSY experiments as described in J. Cavanaugh, W. J. Fairbrother, A. G. Palmer, N. J. Skelton, Protein NMR Spectroscopy: Principles and Practice (1996) were performed on samples of IQN17 and of each complex, with mixing times ranging between 30-90 ms (NOESY) and 30-70 ms (TOCSY). Spectral widths of 11,111 Hz and 5555 Hz were used in the acquisition (t2) and indirect (t1) dimensions, respectively. TOCSY experiments employed the DIPSI-2rc mixing sequence (J. Cavanaugh, M. Rance, J. Magn. Reson. Serv. A., 105:328 (1993)).

Where [4] appears, read: read-out: IC50 cell fusion, syncytium assay, mean ± standard error, triplicate.

Like-named read-outs stand apart in the source and are kept apart here. Positions of bridges follow the written chain, without caps; N, C: chain ends. Non-standard residues stand in square brackets, D forms with d.

Consider `CC(=O)N[C@H](CCCCN)C(=O)N[C@H](CCCCN)C(=O)NCC(=O)N[C@H](C)C(=O)N[C@@H]1CSSC[C@H](C(=O)N[C@H](C)C(=O)N[C@H](C)C(N)=O)NC(=O)[C@@H](CC(C)C)NC(=O)[C@@H](Cc2c[nH]c3ccccc23)NC(=O)[C@@H](C)NC(=O)[C@@H](Cc2c[nH]c3ccccc23)NC(=O)[C@@H](CCC(=O)O)NC(=O)[C@@H](Cc2c[nH]c3ccccc23)NC(=O)CNC(=O)[C@@H](CC(C)C)NC(=O)[C@@H](CC(C)C)NC(=O)[C@@H](CCC(=O)O)NC1=O` [Peptide D10pep5], for which the “inhibition of infection of cells” value in data set [1] (infectivity assay) is recorded as “inhibit infection of cells”. The IC50 in data set [2] (read-out: IC50 syncytia formation, D-peptide, N-terminal acetyl, C-terminal amide) is about 6000 nM.
For the molecule `CC[C@H](NC(=O)[C@H](CCC(=O)O)NC(=O)[C@H](CCSC)NC(=O)[C@H](Cc1c[nH]c2ccccc12)NC(C)=O)C(=O)N[C@@H](CC(=O)O)C(=O)N[C@@H](CCCNC(=N)N)C(=O)N[C@@H](CCC(=O)O)C(=O)N[C@H](C(=O)N[C@@H](CC(N)=O)C(=O)N[C@@H](CC(N)=O)C(=O)N[C@@H](Cc1ccc(O)cc1)C(=O)N[C@H](C(=O)N[C@@H](CO)C(=O)N[C@@H](CC(C)C)C(=O)N[C@H](C(=O)N[C@@H](Cc1c[nH]cn1)C(=O)N[C@@H](CO)C(=O)N[C@@H](CC(C)C)C(=O)N[C@H](C(=O)N[C@@H](CCC(=O)O)C(=O)N[C@@H](CCC(=O)O)C(=O)N[C@@H](CO)C(=O)N[C@@H](CCC(N)=O)C(=O)N[C@@H](CC(N)=O)C(=O)N[C@@H](CCC(N)=O)C(=O)N[C@@H](CCC(N)=O)C(=O)N[C@@H](CCC(=O)O)C(=O)N[C@@H](CCCCN)C(=O)N[C@@H](CC(N)=O)C(=O)N[C@@H](CCC(=O)O)C(=O)N[C@@H](CCC(N)=O)C(=O)N[C@@H](CCC(=O)O)C(=O)N[C@@H](CC(C)C)C(=O)N[C@@H](CC(C)C)C(N)=O)[C@@H](C)CC)[C@@H](C)CC)[C@@H](C)O)[C@@H](C)CC` [Trp^631→Abu], on N36 peptide, the “Tm (apparent melting temperature) of N36/C34 complex” value (“Tm (apparent melting temperature)” below) amounted to 43 °C and the “mean residue ellipticity [θ]222 of N36/C34 complex” value (shortened to “mean residue ellipticity”) was −23.2 10^3 deg cm^2 dmol^−1.
As for `CC[C@H](C)[C@H](NC(=O)[C@H](CC(C)C)NC(=O)[C@H](CO)NC(=O)[C@H](Cc1c[nH]cn1)NC(=O)[C@@H](NC(=O)[C@H](CC(C)C)NC(=O)[C@H](CO)NC(=O)[C@@H](NC(=O)[C@H](Cc1ccc(O)cc1)NC(=O)[C@H](CC(N)=O)NC(=O)[C@H](CC(N)=O)NC(=O)[C@@H](NC(=O)[C@H](CCC(=O)O)NC(=O)[C@H](CCCNC(=N)N)NC(=O)[C@H](CC(=O)O)NC(=O)[C@H](C)NC(=O)[C@H](CCC(=O)O)NC(=O)[C@H](CCSC)NC(=O)[C@H](Cc1c[nH]c2ccccc12)NC(C)=O)[C@@H](C)CC)[C@@H](C)O)[C@@H](C)CC)C(=O)N[C@@H](CCC(=O)O)C(=O)N[C@@H](CCC(=O)O)C(=O)N[C@@H](CO)C(=O)N[C@@H](CCC(N)=O)C(=O)N[C@@H](CC(N)=O)C(=O)N[C@@H](CCC(N)=O)C(=O)N[C@@H](CCC(N)=O)C(=O)N[C@@H](CCC(=O)O)C(=O)N[C@@H](CCCCN)C(=O)N[C@@H](CC(N)=O)C(=O)N[C@@H](CCC(=O)O)C(=O)N[C@@H](CCC(N)=O)C(=O)N[C@@H](CCC(=O)O)C(=O)N[C@@H](CC(C)C)C(=O)N[C@@H](CC(C)C)C(N)=O` [Trp^631→Ala], the IC50 in data set [1] came out at 40 ± 4.3 nM. Besides, at N36 peptide, the “Tm (apparent melting temperature)” value was found to be 37 °C and the “mean residue ellipticity” value is recorded as −24.9 10^3 deg cm^2 dmol^−1.
Regarding “Ac-GACDLKAKEWFWLCAA-CONH2 (Ac-G[dA][dC][dD][dL][dK][dA][dK][dE][dW][dF][dW][dL][dC][dA][dA]-NH2; disulfide 3-14 (inferred)) [Peptide D10pep4]”, the “binding to the hydrophobic pocket of IQN17” value in data set [3] is on record as “contact the pocket with very similar binding interfaces”.
In the case of “Ac-KKKKGACELLGWEWAWLCAA-CONH2 (Ac-KKKKG[dA][dC][dE][dL][dL]G[dW][dE][dW][dA][dW][dL][dC][dA][dA]-NH2; disulfide 7-18 (inferred); not fully specified (residues 1, 2, 3, 4); printed as Ac-KKKKGACELLGWEWAWLCAA-CONH2) [Peptide D10pep5a]”, the “IC50 for inhibition of syncytia formation relative to parent peptide without the added lysines” value in data set [2] (two additional N-terminal lysines vs parent D-peptide) was “approximately 2 fold”.
Take “Ac-WMEFDREINNYTSLIHSLIEESQNQQEKNEQELL-NH2 [Trp^631→Phe]”: the IC50 in data set [1] came out at 3.61 ± 0.8 nM; in data set [2] (setting [4]), 1.6 ± 0.05 nM. Further, on N36 peptide, the “Tm (apparent melting temperature)” value is 59 °C. In addition, the “mean residue ellipticity” value on N36 peptide is given as −26.3 10^3 deg cm^2 dmol^−1.
For the molecule “Ac-WMEGDREINNYTSLIHSLIEESQNQQEKNEQELL-NH2 [Trp^631→Gly]”, the IC50 in data set [1] turned out to be 38 ± 6.1 nM. For the same molecule, in data set [2] (setting [4]), the IC50 was 25 ± 3.8 nM. In addition, at N36 peptide, the “Tm (apparent melting temperature)” value was found to be 35 °C and the “mean residue ellipticity” value was 17.1 10^3 deg cm^2 dmol^−1.
The matching figures for “Ac-WMELDREINNYTSLIHSLIEESQNQQEKNEQELL-NH2 [Trp^631→Leu]”: 5.3 ± 1 nM, 3.2 ± 0.1 nM, 50 °C and −26.7 10^3 deg cm^2 dmol^−1.
The matching figures for “Ac-WMEVDREINNYTSLIHSLIEESQNQQEKNEQELL-NH2 [Trp^631→Val]”: 13 ± 12.8 nM, 4.5 ± 0.09 nM, 43 °C and −23.9 10^3 deg cm^2 dmol^−1.
As to “Ac-WMEWDAEINNYTSLIHSLIEESQNQQEKNEQELL-NH2 [Arg^633→Ala]”, the “effect of mutation on inhibitory activity of C34” value in data set [1] (HIV-1 viral entry and syncytium assays, vs wildtype C34) is “little effect”. Further, the IC50 in data set [1] was 2.6 ± 0.89 nM. Further, the IC50 in data set [2] (setting [4]) is 0.76 ± 0.07 nM. Moreover, on N36 peptide, the “Tm (apparent melting temperature)” value came to 65 °C and the “mean residue ellipticity” value is reported as −30.7 10^3 deg cm^2 dmol^−1.
Consider “Ac-WMEWDREANNYTSLIHSLIEESQNQQEKNEQELL-NH2 [Ile^635→Ala]”, for which the “decrease in inhibitory activity relative to wildtype C34” value in data set [1] (HIV-1 viral entry and syncytium assays) was about 2 fold. Moreover, the IC50 in data set [1] was 4.1 ± 0.91 nM. Moreover, the IC50 in data set [2] (setting [4]) came to 0.96 ± 0.12 nM. On N36 peptide, the “Tm (apparent melting temperature)” value was found to be 55 °C and the “mean residue ellipticity” value is −25.9 10^3 deg cm^2 dmol^−1.

The term IC50 denotes the concentration at which inhibition is half-maximal.
